Data reported in patent US6274715A, “Tricyclic erythromycin derivatives” (priority 1997, dated 2001).
In brackets after ≈: the same amount, converted by molar mass.

What was measured:
Format in all cases: cell-based
[1] = test system: STAPHYLOCOCCUS AUREUS CMX 553; test: In vitro antibacterial activity, MIC, BHI agar dilution; settings: S. aureus CMX 553, unit assumed
[2] = test system: PSEUDOMONAS AERUGINOSA DPHD-2862; test: as above; settings: P. aeruginosa DPHD-2862, unit assumed
ESCHERICHIA COLI JUHL = settings: E. coli JUHL; BHI agar; unit assumed
[3] = test system: PSEUDOMONAS AERUGINOSA BMH10; test: In vitro antibacterial activity, MIC, BHI agar dilution; settings: P. aeruginosa BMH10, unit assumed
[4] = test system: STAPHYLOCOCCUS AUREUS 1775; test: as above; settings: S. aureus 1775, unit assumed
CANDIDA ALBICANS CCH 442 = test: as above; settings: C. albicans CCH 442, unit assumed
PSEUDOMONAS CEPACIA 296I = test: as above; settings: P. cepacia 296I, unit assumed
[5] = test system: PSEUDOMONAS AERUGINOSA DPHD-5263; test: as above; settings: P. aeruginosa DPHD-5263, unit assumed
[6] = test system: STAPHYLOCOCCUS AUREUS A-5278; test: as above; settings: S. aureus A-5278, unit assumed
ESCHERICHIA COLI SS = test: as above; settings: E. coli SS, unit assumed
[7] = test system: STAPHYLOCOCCUS AUREUS CMX 642A; test: as above; settings: S. aureus CMX 642A, unit assumed
[8] = test system: STREPTOCOCCUS PYOGENES 930; test: as above; settings: S. pyogenes 930, unit assumed
[9] = test system: MYCOBACTERIUM SMEGMATIS ATCC 114; test: as above; settings: M. smegmatis ATCC 114, unit assumed
ESCHERICHIA COLI H560 = test: as above; settings: E. coli H560, unit assumed
ESCHERICHIA COLI KNK 437 = settings: E. coli KNK 437; BHI agar; unit assumed
[10] = test system: STREPTOCOCCUS BOVIS A-5169; test: In vitro antibacterial activity, MIC, BHI agar dilution; settings: S. bovis A-5169, unit assumed
[11] = test system: ENTEROBACTER AEROGENES ATCC 13048; test: as above; settings: E. aerogenes ATCC 13048, unit assumed
[12] = test system: PSEUDOMONAS AERUGINOSA K799/61; test: as above; settings: P. aeruginosa K799/61, unit assumed
STR[…] 508 = test: as above; settings: S. agalactiae CMX 508, unit assumed
In short: (§1)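 Twelve successive aqueous dilutions of compound in Brain Heart Infusion agar were inoculated with 1:100 culture dilutions (1:10 for slow growers such as Micrococcus, Streptococcus) by Steers replicator and incubated at 35-37° C for 20 to 24 hours. MIC was the lowest concentration giving no growth, slight haze or sparse colonies versus drug-free control.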

M[…] ATCC 9341 = test: as above; settings: M. luteus ATCC 9341, unit assumed
In short: as §1

EN[…] ATCC 8043 = test: as above; settings: E. faecium ATCC 8043, unit assumed
In short: as §1

M[…] ATCC 4698 = test: as above; settings: M. luteus ATCC 4698, unit assumed
In short: as §1

[13] = test system: STREPTOCOCCUS PYOGENES PIU 2548; test: as above; settings: S. pyogenes PIU 2548, unit assumed
[14] = test system: PSEUDOMONAS AERUGINOSA K799/WT; test: as above; settings: P. aeruginosa K799/WT, unit assumed
[15] = test system: STREPTOCOCCUS PYOGENES EES61; test: as above; settings: S. pyogenes EES61, unit assumed
[16] = test system: PROVIDENCIA STUARTII CMX 640; settings: P. stuartii CMX 640; BHI agar; unit assumed
[17] = test system: KLEBSIELLA PNEUMONIAE ATCC 8045; test: In vitro antibacterial activity, MIC, BHI agar dilution; settings: K. pneumoniae ATCC 8045, unit assumed
[18] = test system: STAPHYLOCOCCUS AUREUS A5177; test: as above; settings: S. aureus A5177, unit assumed
[19] = test system: PSEUDOMONAS AERUGINOSA 5007; test: as above; settings: P. aeruginosa 5007, unit assumed
[20] = test system: STAPHYLOCOCCUS AUREUS ATCC 6538P; test: as above; settings: S. aureus ATCC 6538P, 35-37° C., 20 to 24 hours, unit assumed
ESCHERICHIA COLI DC-2 = test: as above; settings: E. coli DC-2, unit assumed
[21] = test system: STAPHYLOCOCCUS EPIDERMIDIS 3519; settings: S. epidermidis 3519; BHI agar; unit assumed
[22] = test system: STAPHYLOCOCCUS AUREUS NCTC10649M; test: In vitro antibacterial activity, MIC, BHI agar dilution; settings: S. aureus NCTC10649M, unit assumed

| Compound | MIC [1] | MIC [2] | MIC (ESCHERICHIA COLI JUHL) | MIC [3] | MIC [4] | MIC (CANDIDA ALBICANS CCH 442) | MIC (PSEUDOMONAS CEPACIA 296I) | MIC [5] | MIC [6] | MIC (ESCHERICHIA COLI SS) | MIC [7] | MIC [8] | MIC [9] | MIC (ESCHERICHIA COLI H560) | MIC (ESCHERICHIA COLI KNK 437) | MIC [10] | MIC [11] | MIC [12] | MIC (STR[…] 508) | MIC (M[…] ATCC 9341) | further results |
| --- | --- | --- | --- | --- | --- | --- | --- | --- | --- | --- | --- | --- | --- | --- | --- | --- | --- | --- | --- | --- | --- |
| CC[C@H]1OC(=O)[C@H](C)C(=O)[C@H](C)[C@@H](O[C@@H]2O[C@H](C)C[C@H](N(C)C)[C@H]2O)[C@](C)(OC)C[C@@H](C)C2=NC[C@H](Cc3ccc(I)cc3)N3C(=O)O[C@@]1(C)[C@H]3[C@H]2C [Example 70] | 0.2 µg/mL (≈ 0.234 µM) | 100 µg/mL (≈ 117 µM) | 100 µg/mL (≈ 117 µM) | 100 µg/mL (≈ 117 µM) | 100 µg/mL (≈ 117 µM) | 100 µg/mL (≈ 117 µM) | 50 µg/mL (≈ 58.6 µM) | 100 µg/mL (≈ 117 µM) | 100 µg/mL (≈ 117 µM) | 1.56 µg/mL (≈ 1.83 µM) | 0.2 µg/mL (≈ 0.234 µM) | 50 µg/mL (≈ 58.6 µM) | 0.2 µg/mL (≈ 0.234 µM) | 50 µg/mL (≈ 58.6 µM) | > 100 µg/mL | 0.01 µg/mL (≈ 0.0117 µM) | 100 µg/mL (≈ 117 µM) | 0.78 µg/mL (≈ 0.914 µM) | 0.05 µg/mL (≈ 0.0586 µM) | 0.1 µg/mL (≈ 0.117 µM) | MIC (EN[…] ATCC 8043): 0.1 µg/mL (≈ 0.117 µM); MIC (M[…] ATCC 4698): 0.2 µg/mL (≈ 0.234 µM); MIC [13]: 0.39 µg/mL (≈ 0.457 µM); MIC [14]: > 100 µg/mL; MIC [15]: 0.02 µg/mL (≈ 0.0234 µM); MIC [16]: > 100 µg/mL; MIC [17]: 100 µg/mL (≈ 117 µM); MIC [18]: 0.1 µg/mL (≈ 0.117 µM); MIC [19]: 100 µg/mL (≈ 117 µM); MIC [20]: 0.1 µg/mL (≈ 0.117 µM); MIC (ESCHERICHIA COLI DC-2): 50 µg/mL (≈ 58.6 µM); MIC [21]: 0.2 µg/mL (≈ 0.234 µM); MIC [22]: 0.2 µg/mL (≈ 0.234 µM) |
| CCC1OC(=O)C(C)C(=O)C(C)C(OC2OC(C)CC(N(C)C)C2O)C(C)(OC)CC(C)C2=NC(CN(C)C)CN3C(=O)OC1(C)C3C2C (stereo not drawn) [Example 97] | 0.39 µg/mL (≈ 0.561 µM) | > 100 µg/mL | 50 µg/mL (≈ 72 µM) | > 100 µg/mL | > 100 µg/mL | > 100 µg/mL | > 100 µg/mL | > 100 µg/mL | > 100 µg/mL | 0.39 µg/mL (≈ 0.561 µM) | 0.2 µg/mL (≈ 0.288 µM) | > 100 µg/mL | 12.5 µg/mL (≈ 18 µM) | 25 µg/mL (≈ 36 µM) | 50 µg/mL (≈ 72 µM) | 0.01 µg/mL (≈ 0.0144 µM) | 100 µg/mL (≈ 144 µM) | 0.78 µg/mL (≈ 1.12 µM) | 0.02 µg/mL (≈ 0.0288 µM) | 0.05 µg/mL (≈ 0.072 µM) | MIC (EN[…] ATCC 8043): 0.1 µg/mL (≈ 0.144 µM); MIC (M[…] ATCC 4698): 0.78 µg/mL (≈ 1.12 µM); MIC [13]: 0.2 µg/mL (≈ 0.288 µM); MIC [14]: > 100 µg/mL; MIC [15]: 0.02 µg/mL (≈ 0.0288 µM); MIC [16]: > 100 µg/mL; MIC [17]: 100 µg/mL (≈ 144 µM); MIC [18]: 0.2 µg/mL (≈ 0.288 µM); MIC [19]: > 100 µg/mL; MIC [20]: 0.2 µg/mL (≈ 0.288 µM); MIC (ESCHERICHIA COLI DC-2): 50 µg/mL (≈ 72 µM); MIC [21]: 0.39 µg/mL (≈ 0.561 µM); MIC [22]: 0.78 µg/mL (≈ 1.12 µM) |
| CC[C@H]1OC(=O)[C@H](C)C(=O)[C@H](C)[C@@H](O[C@@H]2O[C@H](C)C[C@H](N(C)C)[C@H]2O)[C@](C)(OC)C[C@@H](C)C2=N[C@H](CN3CCOCC3)CN3C(=O)O[C@@]1(C)[C@H]3[C@H]2C [Example 95] | 0.39 µg/mL (≈ 0.529 µM) | > 100 µg/mL | 100 µg/mL (≈ 136 µM) | > 100 µg/mL | > 100 µg/mL | > 100 µg/mL | > 100 µg/mL | > 100 µg/mL | > 100 µg/mL | 0.39 µg/mL (≈ 0.529 µM) | 0.39 µg/mL (≈ 0.529 µM) | > 100 µg/mL | 3.1 µg/mL (≈ 4.21 µM) | 50 µg/mL (≈ 67.8 µM) | > 100 µg/mL | 0.02 µg/mL (≈ 0.0271 µM) | > 100 µg/mL | 1.56 µg/mL (≈ 2.12 µM) | 0.1 µg/mL (≈ 0.136 µM) | 0.1 µg/mL (≈ 0.136 µM) | MIC (EN[…] ATCC 8043): 0.2 µg/mL (≈ 0.271 µM); MIC (M[…] ATCC 4698): 0.39 µg/mL (≈ 0.529 µM); MIC [13]: 0.39 µg/mL (≈ 0.529 µM); MIC [14]: > 100 µg/mL; MIC [15]: 0.05 µg/mL (≈ 0.0678 µM); MIC [16]: > 100 µg/mL; MIC [17]: > 100 µg/mL; MIC [18]: 0.39 µg/mL (≈ 0.529 µM); MIC [19]: > 100 µg/mL; MIC [20]: 0.39 µg/mL (≈ 0.529 µM); MIC (ESCHERICHIA COLI DC-2): > 100 µg/mL; MIC [21]: 0.39 µg/mL (≈ 0.529 µM); MIC [22]: 0.39 µg/mL (≈ 0.529 µM) |
